Reference: the Biogen ADME set (Fang et al. 2023)
≈ marks a conversion by molar mass, not a printed value.

Conditions: for aqueous solubility: pH 6.8

| Compound | MDR1-MDCK efflux ratio | fraction unbound, human plasma | fraction unbound, rat plasma | intrinsic clearance, human liver microsomes | intrinsic clearance, rat liver microsomes | aqueous solubility |
| --- | --- | --- | --- | --- | --- | --- |
| Cc1nnc(CN(C)CC(C)Oc2ccc(Cl)c(Cl)c2)n1C (centres undefined) | 7.09 | 0.0844 | 0.13 | 132 mL/min/kg | 1440 mL/min/kg | 33 µg/mL (≈ 96.1 µM) |
| CC(C)NC(=O)Cn1nnnc1C(C)(C)C | 1.25 |  |  | ≤ 4.74 mL/min/kg | 27.1 mL/min/kg | 23.3 µg/mL (≈ 103 µM) |
| CCN1CCN(c2ccc(Nc3ncnc4sccc34)cc2)CC1 | 1.2 |  |  | ≤ 4.74 mL/min/kg | 61.9 mL/min/kg |  |
| O=C(c1ccc(-c2ccncc2)cc1)N1CCC(F)(F)CC1 |  |  |  | ≤ 4.74 mL/min/kg | 43.2 mL/min/kg |  |
| Cn1nccc1CC1CCN(C2CCCC2)CC1 | 0.94 |  |  | ≤ 4.74 mL/min/kg | 258 mL/min/kg | 26.2 µg/mL (≈ 106 µM) |
| C=CC(=O)N1CCC([C@@H]2CCNc3c(C(N)=O)c(-c4ccc(Oc5ccccc5)cc4)nn32)CC1 | 50.8 | 0.0931 | 0.0171 | 57.8 mL/min/kg | 573 mL/min/kg |  |
| Cc1csc2nc3n(c(=O)c12)CCNCC3 | 0.686 |  |  | 7.83 mL/min/kg | 228 mL/min/kg |  |
| Cc1nn(C)cc1CNc1nc(-c2cnccn2)nc2sc3c(c12)CCCC3 | 1.92 |  |  | 273 mL/min/kg | 2410 mL/min/kg | 50.6 µg/mL (≈ 129 µM) |
| CC(C)C[C@H](CO)Nc1nc(S[C@@H](C)c2ccccc2)nc2nc(N)sc12 |  |  |  | 40.2 mL/min/kg | 329 mL/min/kg |  |
| Clc1ccc2c(c1)CCc1cccnc1C2=C1CCNCC1 | 47.8 |  |  | ≤ 4.74 mL/min/kg | 108 mL/min/kg |  |
| CC(C)(C)c1ccc(C(=O)Nc2cn3cc(-n4ccnc4)ccc3n2)cc1 | 2.85 |  |  | 60.4 mL/min/kg | 25.6 mL/min/kg | 2.75 µg/mL (≈ 7.65 µM) |
| Cc1cc(C)c(S(=O)(=O)Nc2ccc(N(C)C)cc2)c(C)c1-n1cnnn1 | 9.73 |  |  | 118 mL/min/kg | 89.2 mL/min/kg | 2.73 µg/mL (≈ 7.06 µM) |
| COC(=O)c1c(C)[nH]c(C(=O)OCC(=O)N(C)Cc2cccs2)c1C | 1.47 |  |  | 54.1 mL/min/kg | 484 mL/min/kg | 40.6 µg/mL (≈ 111 µM) |
| CC#CCCNC(=O)c1cccnc1C | 0.755 |  |  | ≤ 4.74 mL/min/kg | 21.5 mL/min/kg |  |
| Cc1c(Nc2ccc3nccnc3n2)cnn1C |  |  |  |  |  | 31.7 µg/mL (≈ 132 µM) |
| CCCCN1CCN(C(=O)c2cccc(-c3ccc(CO)cc3)c2)CC1 | 1.13 |  |  | 26.6 mL/min/kg | 269 mL/min/kg |  |
| CCC(C)(C)N1CCN(C(=O)Nc2cnn(CC(C)C)c2C(F)F)CC1 | 4.08 |  |  | ≤ 4.74 mL/min/kg | 159 mL/min/kg |  |
| Clc1cnc(NCC2(CN3CCCC3)CC2)nc1 | 0.734 |  |  | ≤ 4.74 mL/min/kg | 134 mL/min/kg |  |
| Cc1cccc(/C=N/Nc2cc(N3CCOCC3)n3nc(-c4ccncc4)cc3n2)c1 |  |  |  | 32.1 mL/min/kg |  |  |

| Compound | MDR1-MDCK efflux ratio | fraction unbound, human plasma | fraction unbound, rat plasma | intrinsic clearance, human liver microsomes | intrinsic clearance, rat liver microsomes | aqueous solubility |
| --- | --- | --- | --- | --- | --- | --- |
| Cc1noc(C)c1CSC(=N)N1CCOCC1 | 1.21 |  |  | ≤ 4.74 mL/min/kg | ≤ 10.7 mL/min/kg |  |
| c1cnc(N2CC(c3nc4ccccc4[nH]3)C2)nc1 | 3.96 |  |  | 10.1 mL/min/kg | 33.5 mL/min/kg | 35 µg/mL (≈ 139 µM) |
| C[n+]1cc2c3c(ccc2c2ccc4cc5c(cc4c21)OCO5)OCO3 | 13.5 |  |  | 8.23 mL/min/kg | 58.2 mL/min/kg | 32.2 µg/mL |
| Cc1ccnc(NC(=O)CN(C)C(=O)c2ccc(Cl)cc2)c1 | 1.12 |  |  | 16.5 mL/min/kg | 156 mL/min/kg | 63.3 µg/mL (≈ 199 µM) |
| Cc1ccnc(NC(=O)CN2CCCC2=O)c1 | 2.12 |  |  | ≤ 4.74 mL/min/kg | ≤ 10.7 mL/min/kg | 55.1 µg/mL (≈ 236 µM) |
| Cc1ccc(C(=O)N(C)C)cc1NS(C)(=O)=O | 8.3 |  |  | ≤ 4.74 mL/min/kg | ≤ 10.7 mL/min/kg | 50.3 µg/mL (≈ 196 µM) |
| Cc1nc(O)cc(C2CCN(c3cnccn3)CC2)n1 | 42 |  |  | ≤ 4.74 mL/min/kg | 20.1 mL/min/kg | 50.7 µg/mL (≈ 187 µM) |
| Cc1ccc2c(C(=O)N(C)C)cc(-c3cnc(C(C)C)nc3)nc2c1C | 1.95 |  |  | 16.7 mL/min/kg | 836 mL/min/kg | 2.43 µg/mL (≈ 6.97 µM) |
| COc1cc(NC(=O)c2ccc(F)cc2C)ncn1 | 0.558 |  |  | 8.37 mL/min/kg | 49.1 mL/min/kg | 15.8 µg/mL (≈ 60.3 µM) |
| Cc1ncsc1CCN1C(=O)NC2(CCCC2)C1=O |  |  |  | ≤ 4.74 mL/min/kg | 172 mL/min/kg |  |
| COc1ccc(-c2nc(NC(C)C)ncc2-c2ncc[nH]2)cc1 | 6.39 |  |  | 26.8 mL/min/kg | 1160 mL/min/kg |  |
| Clc1ccc2[nH]c(COc3ccccc3)nc2c1 |  |  |  | 27.9 mL/min/kg | 338 mL/min/kg | 29.5 µg/mL (≈ 114 µM) |
| Cc1cnc(CNC2(c3nccs3)CCCC2)cn1 |  |  |  | ≤ 4.74 mL/min/kg | 245 mL/min/kg |  |
| C=CC(=O)Nc1cccc(Nc2nc(Nc3ccc(Oc4ccnc(C(=O)NC)c4)cc3)ncc2F)c1 | 13.2 | 0.00395 |  | 66.5 mL/min/kg | 322 mL/min/kg |  |
| Cc1nc(Nc2nccs2)cc(C2CN(c3ncccn3)C2)n1 | 1.45 | 0.0278 | 0.0237 | 30.3 mL/min/kg | 74.2 mL/min/kg |  |
| Cc1cccc2cc(C(N)=S)/c(=N/Nc3ccccc3)oc12 |  |  |  |  |  | 0.48 µg/mL (≈ 1.55 µM) |
| O=C(C(c1ccccc1)c1ccccc1)N1CCOCC(Cc2ccc3cnccc3c2)C1 (centres undefined) | 1.97 |  |  | 404 mL/min/kg | 653 mL/min/kg | 35.3 µg/mL (≈ 80.9 µM) |
| N#CCN1CCCN(Cc2ccc(C#N)cc2)CC1 |  |  |  | 65.5 mL/min/kg | 267 mL/min/kg | 37.8 µg/mL (≈ 149 µM) |
| CC1(C)CN(C(=O)C2(C(=O)N3CC(C)(C)C3(C)C)CCC2)C1(C)C | 2.4 |  |  | 304 mL/min/kg | 1210 mL/min/kg | 75 µg/mL (≈ 224 µM) |

Continued, values first:

| MDR1-MDCK efflux ratio | fraction unbound, human plasma | fraction unbound, rat plasma | intrinsic clearance, human liver microsomes | intrinsic clearance, rat liver microsomes | aqueous solubility | Compound |
| --- | --- | --- | --- | --- | --- | --- |
| 24.7 |  |  | ≤ 4.74 mL/min/kg | ≤ 10.7 mL/min/kg | 49.4 µg/mL (≈ 154 µM) | CCc1cnc(CNC(=O)N2CCC(n3cncn3)CC2)s1 |
| 4.28 |  |  | 7.03 mL/min/kg | 521 mL/min/kg | 18.4 µg/mL (≈ 56.9 µM) | CCOC(=O)c1ccc(NC(=O)Cn2cnc3ccccc32)cc1 |
| 0.681 |  |  | 13.3 mL/min/kg | 505 mL/min/kg | 47.6 µg/mL (≈ 169 µM) | Cc1nc(C2(NCc3cccc(C#N)c3)CCCC2)no1 |
| 1.73 |  |  | ≤ 4.74 mL/min/kg | 112 mL/min/kg |  | CCCc1ncncc1C(=O)NCc1noc(C2CC2)n1 |
| 0.401 |  |  | 398 mL/min/kg | 4200 mL/min/kg | 37.3 µg/mL (≈ 131 µM) | CCOc1ccc(-c2ccccc2NC(=O)COC)cc1 |
| 0.721 |  |  | 82.3 mL/min/kg | 1060 mL/min/kg |  | COc1cccc(O[C@H]2CCN(C(=O)c3cc(-c4ccc(C)cc4)on3)CC[C@@H]2O)c1 |
|  |  |  | 45.2 mL/min/kg | 165 mL/min/kg |  | Cc1cccc(NC(=O)c2cncn2-c2ccccc2)n1 |
|  |  |  |  |  | 16.1 µg/mL (≈ 45.7 µM) | O=C(c1cc(Oc2cccc(F)c2)nc2ccccc12)N1CCOCC1 |
| 0.688 |  |  | 22.2 mL/min/kg | 229 mL/min/kg |  | Cc1ccc(O)c(CN2CCC(c3nc4ccccc4o3)CC2)n1 |
|  |  |  | 55.3 mL/min/kg | 598 mL/min/kg |  | CC(C)C[C@H](C(=O)N[C@H](C(=O)OC1CCCC1)c1ccccc1)[C@@H](O)C(=O)NO |
| 1.44 |  |  | ≤ 4.74 mL/min/kg | 137 mL/min/kg |  | Cn1cccc(C(=O)NCc2nc(C(C)(C)C)no2)c1=O |
|  |  |  | 24.8 mL/min/kg | 1090 mL/min/kg | 98.7 µg/mL (≈ 287 µM) | CN1CCC[C@@H]1CCO[C@](C)(c1ccccc1)c1ccc(Cl)cc1 |
|  |  |  |  |  | 0.2 µg/mL (≈ 0.839 µM) | O=C(Nc1nc2ccccc2[nH]1)c1cccnc1 |
| 0.612 |  |  | 33.9 mL/min/kg | 461 mL/min/kg | 70.5 µg/mL (≈ 245 µM) | O=C(Nc1cccnc1)c1ccccc1Cc1ccccc1 |
|  |  |  | ≤ 4.74 mL/min/kg | ≤ 10.7 mL/min/kg | 37.8 µg/mL (≈ 145 µM) | O=C(NCc1ccc(O)cc1)Nc1ccncc1F |
| 30.8 |  |  | ≤ 4.74 mL/min/kg | ≤ 10.7 mL/min/kg | 39.6 µg/mL (≈ 128 µM) | CN(Cc1ccn(-c2ccccc2)n1)C(=O)c1ccc(O)nc1 |
| 0.68 |  |  | ≤ 4.74 mL/min/kg | 119 mL/min/kg | 34.7 µg/mL (≈ 122 µM) | CC(C)(C)c1nc(Cn2nnc3ccccc3c2=O)no1 |
| 0.662 |  |  | 12.5 mL/min/kg | 147 mL/min/kg |  | Cn1nc(CNC(=O)C2CCC2)c2ccccc21 |
| 0.833 |  |  |  |  | 0.16 µg/mL (≈ 0.551 µM) | Cc1ccc2c(c1)c1nc3ccccc3nc1n2CC(N)=O |
|  |  | 0.313 |  |  |  | C=CCc1ccccc1OCC(O)CNC(C)C (centres undefined) |
|  |  |  | ≤ 4.74 mL/min/kg | 299 mL/min/kg |  | Cc1nc2ccccc2n1CCNc1ncccn1 |
|  |  |  |  |  | 14.1 µg/mL (≈ 39.4 µM) | O=C(Cc1cccc2ccccc12)NCc1ccc(N2CCCC2=O)cc1 |
